The structures appear in SMILES notation. Converted amounts (≈) assume the structure as drawn. Some results are limits rather than exact numbers.

Among the data in patent publication US4374147A, “13-Oxo-monic acid esters useful as antibacterial and antimycoplasmal agents” (Beecham Group Limited, priority 1980, dated 1983) are anti-mycoplasmal activity, antibacterial activity and MIC values, retold here.

One experiment concerns mycoplasma organisms. Conditions: disclosed in earlier patents; cited from earlier work.
The test system of experiment [1] is Gram-positive and Gram-negative organisms. Conditions: disclosed in earlier patents; cited from earlier work.
In experiment [2] the test system is Staph.aureus Oxford. The experiment in a line: MIC by serial dilution in nutrient agar (human bacteria, Table 1). In kind it is cell-based. To be noted: Staphylococcus aureus.
The next experiment relates to Strep.pyogenes A 64/848. The description is as above. In kind it is cell-based. Conditions: Streptococcus pyogenes, A64/848, 5% "chocolated" horse blood.
The test system of the next experiment is K. aerogenes A. The description is as above. It is filed as cell-based. To be noted: Klebsiella aerogenes, 5% "chocolated" horse blood.
Experiment [3] deals with Pasteurella multocida 1633. The experiment is described as above. In kind it is cell-based. To be noted: Pasteurella multocida 1633; nutrient agar, 5% "chocolated" horse blood; read-out: MIC.
A further experiment concerns Strep.pneumoniae CN33. The description is as above. It is filed as cell-based. Conditions: Streptococcus pneumoniae, 5% "chocolated" horse blood.
For experiment [4], the system named is E.coli NCTC 10418. Described as above. Conditions: Escherichia coli, NCTC10418, 5% "chocolated" horse blood. In kind it is cell-based.
Another experiment has as its system Strep.faecalis I. The experiment is described as above. In kind it is cell-based. To be noted: Enterococcus faecalis, 5% "chocolated" horse blood.
For experiment [5], the system named is Haemophilus influenzae Wy21. The description is as above. In kind it is cell-based. Conditions: 5% "chocolated" horse blood.
For experiment [6], the system named is Haemophilus influenzae Q1. Described as above. In kind it is cell-based. To be noted: Haemophilus influenzae Q1; nutrient agar, 5% "chocolated" horse blood; read-out: MIC.
Experiment [7] concerns Erysipelothrix rhusiopathiae NCTC 8163. The experiment in a line: MIC by agar dilution (veterinary bacteria, Table 2). To be noted: NCTC8163, diagnostic sensitivity test agar, 24 hours, 37° C. It is filed as cell-based. On the procedure: (§1) The MIC values were determined by agar dilution using diagnostic sensitivity test agar (Oxoid) using a multipoint inoculator delivering 0.001 ml of an inoculum adjusted to give 10^7 -10^8 organisms per ml and read after 24 hours incubation at 37° C.
Background: In agar dilution the substance is mixed into plates at graded concentrations.

A further experiment relates to Strep.dysgalactiae SPD1. The experiment is described as above. It is filed as cell-based. Conditions: Streptococcus dysgalactiae, diagnostic sensitivity test agar, 24 hours, 37° C. On the procedure:
as §1

The next experiment has as its system Strep.agalactiae SPA1. Described as above. It is filed as cell-based. Conditions: Streptococcus agalactiae, diagnostic sensitivity test agar, 24 hours, 37° C. As for the experimental part: as §1
Experiment [8] has as its system Staph.aureus Oxford. The experiment is described as above. Conditions: Staphylococcus aureus, diagnostic sensitivity test agar, 24 hours, 37° C. It is filed as cell-based. As for the experimental part: as §1
The next experiment concerns Past.multocida PA1. Described as above. It is filed as cell-based. Conditions: Pasteurella multocida, diagnostic sensitivity test agar, 24 hours, 37° C. As for the experimental part: as §1
Experiment [9] concerns Staph.aureus B4 (pen resis). The experiment is described as above. To be noted: Staphylococcus aureus, diagnostic sensitivity test agar, 24 hours, 37° C. It is filed as cell-based. On the procedure: as §1
Another experiment relates to E.coli E1. The experiment is described as above. It is filed as cell-based. Conditions: Escherichia coli, diagnostic sensitivity test agar, 24 hours, 37° C. On the procedure: as §1
Experiment [10] has as its system E.coli NCTC 10418. The description is as above. It is filed as cell-based. To be noted: Escherichia coli, NCTC10418, diagnostic sensitivity test agar, 24 hours, 37° C. On the procedure: as §1
The next experiment relates to Past.multocida PA2. Described as above. In kind it is cell-based. To be noted: Pasteurella multocida, diagnostic sensitivity test agar, 24 hours, 37° C. As for the experimental part:
as §1

For experiment [11], the system named is Corynebacterium pyogenes CY1. The experiment is described as above. In kind it is cell-based. To be noted: Trueperella pyogenes, diagnostic sensitivity test agar, 24 hours, 37° C. As for the experimental part:
as §1

The test system of experiment [12] is Staph.aureus 152 (pen sens). Described as above. In kind it is cell-based. Conditions: Staphylococcus aureus, diagnostic sensitivity test agar, 24 hours, 37° C. On the procedure:
as §1

Another experiment deals with Bord.bronchiseptica BO9. Described as above. In kind it is cell-based. To be noted: Bordetella bronchiseptica, diagnostic sensitivity test agar, 24 hours, 37° C. On the procedure: as §1
The next experiment relates to Past.haemolytica PA5. The experiment is described as above. It is filed as cell-based. Conditions: Mannheimia haemolytica, diagnostic sensitivity test agar, 24 hours, 37° C. As for the experimental part:
as §1

The test system of a further experiment is S.dublin S7. Described as above. In kind it is cell-based. To be noted: Salmonella enterica, diagnostic sensitivity test agar, 24 hours, 37° C. As for the experimental part:
as §1

Experiment [13] concerns Strep.suis (group D) SPS11. The experiment is described as above. To be noted: Streptococcus suis, diagnostic sensitivity test agar, 24 hours, 37° C. In kind it is cell-based. On the procedure: as §1
The next experiment concerns Strep.uberis SPU1. The experiment is described as above. In kind it is cell-based. To be noted: Streptococcus uberis, diagnostic sensitivity test agar, 24 hours, 37° C. On the procedure: as §1
Another experiment has as its system S.typhimurium S18. Described as above. It is filed as cell-based. Conditions: Salmonella enterica, diagnostic sensitivity test agar, 24 hours, 37° C. As for the experimental part: as §1
For another experiment, the system named is Bord.bronchiseptica BO8. The description is as above. It is filed as cell-based. To be noted: Bordetella bronchiseptica, diagnostic sensitivity test agar, 24 hours, 37° C. As for the experimental part:
as §1

In the next experiment the test system is Ps. aeruginosa 10662. In words: MIC by serial dilution in nutrient agar (human bacteria, Table 1). It is filed as cell-based. To be noted: Pseudomonas aeruginosa, 5% "chocolated" horse blood.
Another experiment deals with Staph. aureus W2827. The experiment in a line: MIC by serial dilution in nutrient agar (human bacteria, Table 1, footnote b). It is filed as cell-based. Conditions: Staphylococcus aureus, Staph. aureus W2827 (footnote b, in line Staph.aureus 1517), 5% "chocolated" horse blood.
In another experiment the test system is Bacillus subtilis 6633. The experiment in a line: MIC by serial dilution in nutrient agar (human bacteria, Table 1). In kind it is cell-based. Conditions: 5% "chocolated" horse blood.
The subject of experiment [14] is Neisseria catarrhalis 1502. Described as above. It is filed as cell-based. Conditions: 5% "chocolated" horse blood.
Another experiment concerns Strep.pyogenes B 2788. Described as above. In kind it is cell-based. To be noted: Streptococcus pyogenes, B2788, 5% "chocolated" horse blood.
A further experiment has as its system P. mirabilis 889. Described as above. To be noted: Proteus mirabilis, 5% "chocolated" horse blood. It is filed as cell-based.
The test system of the next experiment is Staph.aureus Russell. Described as above. It is filed as cell-based. To be noted: Staphylococcus aureus.
A further experiment deals with M.bovis NCTC 10131. The experiment in a line: Anti-mycoplasmal MIC in Friis broth solidified with agarose (Table 3). It is filed as cell-based. Conditions: NCTC10131, 144 h, read-out: in vitro MIC. As for the experimental part:
(§2) ^+ Determined in Friis broth solidified with 0.9% agarose. The
(§3) inoculum was 10^3 to 10^5 C.F.U. MIC's were recorded after 6 days

The test system of another experiment is M.suipneumoniae Str.11. The experiment is described as above. Conditions: Mesomycoplasma hyopneumoniae, 144 h, 6 days, 37° C., read-out: in vitro MIC. In kind it is cell-based. As for the experimental part: as §2, §3
The subject of experiment [15] is M.pneumoniae (Mac) ATCC 15492. The description is as above. Conditions: Mycoplasmoides pneumoniae, ATCC15492, 144 h, 6 days, 37° C., read-out: in vitro MIC. In kind it is cell-based. As for the experimental part:
as §2, §3

A further experiment has as its system M.hyorhinis ATCC 23234. The experiment is described as above. It is filed as cell-based. Conditions: Mesomycoplasma hyorhinis, ATCC23234, 144 h, 6 days, 37° C., read-out: in vitro MIC. On the procedure: as §2, §3
For experiment [16], the system named is M.suipneumoniae J2206/183b. The experiment is described as above. It is filed as cell-based. To be noted: Mesomycoplasma hyopneumoniae, 144 h, 6 days, 37° C., read-out: in vitro MIC. As for the experimental part: as §2, §3
In the next experiment the test system is M.dispar NCTC 10125. The experiment is described as above. In kind it is cell-based. To be noted: 144 h, 6 days, 37° C., read-out: in vitro MIC. On the procedure: as §2, §3
For the next experiment, the system named is M.hyosynoviae ATCC 25591. The experiment is described as above. It is filed as cell-based. To be noted: 144 h, 6 days, 37° C., read-out: in vitro MIC. On the procedure: as §2, §3
A further experiment deals with E.coli ESS. The experiment in a line: MIC by serial dilution in nutrient agar (human bacteria, Table 1). In kind it is cell-based. Conditions: Escherichia coli, 5% "chocolated" horse blood.
The subject of another experiment is Strep.pyogenes C 2761. The description is as above. Conditions: Streptococcus pyogenes, C2761, 5% "chocolated" horse blood. In kind it is cell-based.

Turning to `C/C(=C\C(=O)O)CC1OCC(CC2OC2C(C)C(C)O)C(O)C1O` (stereo not drawn) [monic acid A], the anti-mycoplasmal activity entry with mycoplasma organisms is given as “does not appear to have antibacterial or anti-mycoplasmal activity”. The antibacterial activity result in experiment [1] is reported as “does not appear to have antibacterial or anti-mycoplasmal activity”.
Turning to `CCOC(=O)C=C(C)CC1OCC(CC2OC2C(C)C(C)=O)C(O)C1O` (stereo not drawn) [Example 5, Ethyl 4-(5-(2,3-epoxy-4-methylhexan-5-onyl)-3,4-dihydroxytetrahydropyran-2-yl)-3-methylbut-2-enoate], the MIC against Staph.aureus Oxford [2] was 5 µg/mL (≈ 13.5 µM); in the experiment with Strep.pyogenes A 64/848 it was 50 µg/mL (≈ 135 µM); in the experiment with K. aerogenes A, above 100 µg/mL; in experiment [3], 10 µg/mL (≈ 27 µM); in the experiment on Strep.pneumoniae CN33 it was 10 µg/mL (≈ 27 µM); in the experiment with E.coli NCTC 10418 [4] it was above 100 µg/mL. Also, the MIC was above 100 µg/mL with Strep.faecalis I; 1 µg/mL (≈ 2.7 µM) in experiment [5]; 1 µg/mL (≈ 2.7 µM) in experiment [6]; above 80 µg/mL in experiment [7]; 20 µg/mL (≈ 54 µM) against Strep.dysgalactiae SPD1; 20 µg/mL (≈ 54 µM) in the experiment with Strep.agalactiae SPA1. The MIC against Staph.aureus Oxford [8] is 0.625 µg/mL (≈ 1.69 µM); with Past.multocida PA1, 2.5 µg/mL (≈ 6.75 µM); in [9], 0.625 µg/mL (≈ 1.69 µM); in the experiment with E.coli E1, above 80 µg/mL; against E.coli NCTC 10418 [10], above 80 µg/mL; against Past.multocida PA2, 0.625 µg/mL (≈ 1.69 µM). In addition, the MIC in experiment [11] is above 80 µg/mL; in experiment [12], 0.625 µg/mL (≈ 1.69 µM); in the experiment on Bord.bronchiseptica BO9, 80 µg/mL (≈ 216 µM); in the experiment with Past.haemolytica PA5, 10 µg/mL (≈ 27 µM); against S.dublin S7, above 80 µg/mL; in experiment [13], above 80 µg/mL. The MIC against Strep.uberis SPU1 is 2.5 µg/mL (≈ 6.75 µM); in the experiment with S.typhimurium S18 it was above 80 µg/mL; in the experiment on Bord.bronchiseptica BO8, above 80 µg/mL; against Ps. aeruginosa 10662, above 100 µg/mL; with Staph. aureus W2827, 5 µg/mL (≈ 13.5 µM); with Bacillus subtilis 6633, 10 µg/mL (≈ 27 µM). For the same compound, the MIC turned out to be 2.5 µg/mL (≈ 6.75 µM) in experiment [14]; 50 µg/mL (≈ 135 µM) against Strep.pyogenes B 2788; 100 µg/mL (≈ 270 µM) with P. mirabilis 889; 5 µg/mL (≈ 13.5 µM) against Staph.aureus Russell; 0.1 µg/mL (≈ 0.27 µM) with M.bovis NCTC 10131; 2.5 µg/mL (≈ 6.75 µM) with M.suipneumoniae Str.11. Also, the MIC was above 10 µg/mL in [15]; 5 µg/mL (≈ 13.5 µM) with M.hyorhinis ATCC 23234; 5 µg/mL (≈ 13.5 µM) in experiment [16]; 1 µg/mL (≈ 2.7 µM) in the experiment with M.dispar NCTC 10125; 2.5 µg/mL (≈ 6.75 µM) with M.hyosynoviae ATCC 25591; 10 µg/mL (≈ 27 µM) against E.coli ESS. Also, the MIC against Strep.pyogenes C 2761 came to 100 µg/mL (≈ 270 µM).
